Legend:
Assay type in all cases: cell-based, human
MCF-7 cells [1] = assay: Boyden chamber (Transwell) migration test; conditions: 200 ng/mL in lower chamber, starving medium, 24 h, compared with starving medium alone
Protocol: (§1) A “starving” medium was used, “starving” denoting a medium identical to the complete medium but without serum and supplemented with 2 μg/mL of fibronectin and 30 μg/mL of transferrin. For the various biological activity measurements, the various test molecules (ProNGF, NGF and galardin) are added to this starving medium. During the treatments, the media are renewed every 24 hours.
(§2) The migration and invasion tests are carried out as previously described by Bracke et al. (1999, J Natl Cancer Inst, 91: 354-359). The protocols for using Boyden chambers and for invasion in collagen gel are described below.
12-well plates containing Transwells® with a pore diameter of 12 μm are equilibrated with starving medium and placed at 37° C. under 5% CO2 for 2 hours. The medium is then drawn off and replaced, in the lower chamber, by starving medium with the various test molecules, whereas, in the upper chamber, 40 000 cells are seeded in starving medium alone. […] Each condition is carried out in duplicate; a minimum of 40 fields is counted for each condition. […]
The effects of ProNGF on the migration of mammary epithelial cells were comprehended by means of tests in Boyden chambers (Transwell®). Each condition was carried out in duplicate and a minimum of 40 fields was counted. […] The cells having crossed the Transwell® were then counted. *p<0.05, comparison with the starving medium alone condition.

MCF-7 cells [2] = assay: Collagen type I gel invasion test; conditions: 200 ng/mL, starving medium, 24 h
Protocol: as §1, §2
The collagen type I gel is prepared in the following way: 2.1 mL of collagen Type I, 0.8 mL of EMEM (10×), 4.6 mL of PBS, 0.8 mL of NaHCO3 at 0.25 M and 0.15 mL of 1 M NaOH. 1.25 mL are deposited in the wells of a 6-well plate. Once the gel has solidified, 100 000 cells are seeded with starving medium and the various test molecules for 24 hours. The cells are subsequently counted and the invasion index is determined (number of deep cells related to the number of cells at the surface). Each condition is carried out in triplicate and a minimum of 45 fields is counted per condition.
The invasive capacity of the ProNGF-stimulated MCF-7 cells was tested in collagen type I gel. Each condition is carried out in triplicate and a minimum of 45 fields is counted per condition. […]

ProNGF = assay: Anti-ProNGF Western blotting after siRNA transfection, densitometry; conditions: MCF-7 cells, 3 μg siRNA
Protocol: The MCF-7 cells are passaged 3-4 days before transfection, so as to reach 50% confluence at the time of the experiment. Two million cells are taken up in 100 μl of Nucleofector Kit V solution and 3 μg of siRNA are added. The transfection program used on the Nucleofector is E-14. Anti-ProNGF Western blotting is carried out on the lysates recovered after 24 hours or after 48 hours, according to the protocol described in point 2.1. The relative amount of ProNGF detected by blotting is evaluated with the QuantityOne software (Bio-Rad), related to the equal loading (actin) and presented in the form of a histogram where 100% is assigned to the siGFP control condition.
The MCF-7 cells were transfected with 3 μg interfering RNA (siRNA) directed against GFP (siGFP) or against ProNGF (siProNGF). After 24 to 48 h of culture, the cells were lysed and ProNGF Western blotting was carried out. The relative amount of ProNGF detected by blotting was evaluated with the QuantityOne software (Bio-Rad) related to the actin equal loading and presented in the form of a histogram where 100% is assigned to the siGFP control condition (FIG. 10). […] Densitometric analysis made it possible to evaluate this decrease at 59% after 24 h of transfection.

MDA-MB-231 cells = assay: Cell proliferation (cell count) after siRNA transfection; conditions: 3 μg siRNA, EMEM culture medium, counted at 24, 48 and 96 h; Mock and siGFP controls double between 24 and 48 h
Protocol: The interfering RNA (siRNA) transfection experiments were carried out with the Cell Line Nucleofector kit from Amaxa and the corresponding electroporation apparatus. This system makes it possible to obtain a high efficiency of gene transfer to the nucleus (nucleofection).
The MDA-MB-231 cells are passaged 2 days before the transfection, so as to reach 80% confluence at the time of the experiment. The cells to be transfected are trypsinized and then counted. The cell pellet (1 million cells) is taken up in 100 μl of Nucleofector Kit V solution and 3 μg of siRNA are added. This cell suspension is transferred into an electroporation cuvette, placed in the Amaxa apparatus and electroporated according to the X-13 program. The cells are subsequently put back in culture in a well of a 6-well plate for 24-72 h. The cell proliferation is followed over time and the cells are counted at regular time intervals. Anti-Sortilin Western blotting is carried out on the lysates recovered at various times, according to the protocol described in the previous paragraph, “Expression of Sortilin”.
MDA-MB-231 cells maintained in the EMEM culture medium were transfected either with culture medium alone (Mock), or with an interfering RNA directed against the GFP protein (siGFP) or with an interfering RNA directed against Sortilin (siSORT).

Sortilin = assay: Anti-Sortilin Western blotting after siRNA transfection; conditions: MDA-MB-231 cells transfected with siRNA
Protocol: For the Western blotting, the membranes are saturated with 4% bovine serum albumin in a solution of TBS (Tris Buffered Saline) 0.1% Tween 20 (17.54 g NaCl, 2.42 g Tris, 2 mL tween 20, QS 2 L, pH adjusted to 7.4) at ambient temperature for 2 hours. After saturation, the membranes are incubated overnight at 4° C. with the various primary antibodies: anti-Sortilin (BD612101 from BD Biosciences) at 1:2000, anti-Actin (A-2066 from Sigma) at 1:5000 in the saturation solution. After rinsing with TBS 0.1% Tween 20, the membranes are incubated for 1 hour at ambient temperature with an anti-rabbit secondary antibody (A-1949 from Sigma, France) coupled to horseradish peroxidase, at 1:20000 in the saturation solution. After rinsing, visualization is carried out with the ECL system (Pierce Interchim, France) according to the recommended data for use.
The MDA-MB-231 cells are passaged 2 days before the transfection, so as to reach 80% confluence at the time of the experiment. The cells to be transfected are trypsinized and then counted. The cell pellet (1 million cells) is taken up in 100 μl of Nucleofector Kit V solution and 3 μg of siRNA are added. This cell suspension is transferred into an electroporation cuvette, placed in the Amaxa apparatus and electroporated according to the X-13 program. […] The cell proliferation is followed over time and the cells are counted at regular time intervals. […]

NGF: recombinant nerve growth factor obtained from R&D systems
cell migration (MCF-7 cells [1]): increase their ability to migrate, in a similar manner to NGF

ProNGF: human recombinant nerve growth factor precursor sold by SCIL proteins
cell migration (MCF-7 cells [1]): increase their ability to migrate | invasion (invasion index) (MCF-7 cells [2]): stimulates MCF-7 invasion

siProNGF: interfering RNA directed against ProNGF; double-stranded RNA of SEQ ID No.5 and SEQ ID No.6 (chain 1 CAGUGUAUUCAAACAGUAUNN; chain 2 GUACUGUUUGAAUACACUGNN; listed as RNA, chemistry not given here)
expression of the ProNGF protein (photographs of the blots) (ProNGF; 24 to 48 h of culture): decreases the expression of the ProNGF protein | decrease in expression of ProNGF (densitometric analysis) (ProNGF; after 24 h of transfection, 100% assigned to siGFP control, related to actin): 59%

siSORT: interfering RNA which decreases the expression of Sortilin; double-stranded RNA of SEQ ID No.3 and SEQ ID No.4 (chain 1 GGUGGUGUUAACAGCAGAGNN; chain 2 CUCUGCUGUUAACACCACCNN; listed as RNA, chemistry not given here)
number of MDA-MB-231 cells in culture over time (MDA-MB-231 cells): does not increase over time | level of expression of the Sortilin protein (Sortilin): decreased the level of expression of the Sortilin protein

— patent publication US8008009B2, “Method for ProNGF assay for in vitro diagnosis of cancer in particular breast, thyroid or lung cancer and therapeutic use of ProNGF” (Biomerieux, priority 2006, dated 2011)
